# Where “and” joins values, the source holds several entries; their conditions need not be identical. Equal entries are not always repeated. After the bases stand the sugars from the 5' end (letter, count) and the backbone: PS all phosphorothioate, else s phosphorothioate and o phosphodiester by linkage. Methylation of C is not given here. e = 2'-O-(2-methoxyethyl) (MOE); k = constrained ethyl (cEt); d = 2'-deoxy (DNA)
# Molecular target: IRF4
# Conditions: ASO
Sequence,"target mRNA inhibition (MM.1R, 1 µM)","target mRNA inhibition (SK-MEL-28, 4 µM)",further results
"TAGCATTCTTACAGCA (sugars k3 d10 k3, PS)",7% and 20%,57%,"target mRNA inhibition (MM.1R, 0.0625 µM): -4% and 15%; target mRNA inhibition (MM.1R, 0.074 µM): 0%; target mRNA inhibition (MM.1R, 0.222 µM): 34%; target mRNA inhibition (MM.1R, 0.25 µM): -7% and -4%; target mRNA inhibition (MM.1R, 0.666 µM): 27%; target mRNA inhibition (MM.1R, 2 µM): 52%; target mRNA inhibition (MM.1R, 4 µM): 26% and 40%"
"CGGAACTTTCCTTTAA (sugars k3 d10 k3, PS)",,37%,
"AAGCAGTCATCACTCT (sugars k3 d10 k3, PS)",,38%,
"TACCGCATTGCTAGAT (sugars k3 d10 k3, PS)",,23%,
"AATGAGGAAGCCGTTC (sugars k3 d10 k3, PS)",,47%,
"TTCCGTAGTCAGCTCC (sugars k3 d10 k3, PS)",,68%,
"GCTGAGATAAGAAGCA (sugars k3 d10 k3, PS)",,32%,
"CCTGAGACAGACTTCC (sugars k3 d10 k3, PS)",,55%,
"GCATGACAGGGCGAGG (sugars k3 d10 k3, PS)",,43%,
"TTCGAGAGAAATATAC (sugars k3 d10 k3, PS)",22%,,
"AGGAATGGCGGATAGA (sugars k3 d10 k3, PS)",,38%,
"CAAAACTACTATTGTG (sugars k3 d10 k3, PS)",,23%,
"GCAGTGATGTCAGGTT (sugars k3 d9 k3 e1, PS)",62%,,"target mRNA inhibition (MM.1R, 0.074 µM): 15%; target mRNA inhibition (MM.1R, 0.222 µM): 33%; target mRNA inhibition (MM.1R, 0.666 µM): 51%; target mRNA inhibition (MM.1R, 2 µM): 73%"
"GGGAACCTGAAAAGAG (sugars k3 d10 k3, PS)",,21%,
"GCACATCAATGTTTTA (sugars kkdddddddddekeke, PS)",10% and 12%,,
"ACAAGCAGTGATGTCA (sugars k3 d10 k3, PS)",14%,73%,"target mRNA inhibition (MM.1R, 0.0625 µM): -4%; target mRNA inhibition (MM.1R, 0.074 µM): 2%; target mRNA inhibition (MM.1R, 0.222 µM): 6%; target mRNA inhibition (MM.1R, 0.25 µM): 5%; target mRNA inhibition (MM.1R, 0.666 µM): 14%; target mRNA inhibition (MM.1R, 2 µM): 46%; target mRNA inhibition (MM.1R, 4 µM): 52%"
"CGTGGAAACGAGAACG (sugars k3 d10 k3, PS)",,29%,
"GGAGAATTTGGGCTGG (sugars k3 d10 k3, PS)",,75%,
"AGCTGTATTTATGCCC (sugars k3 d10 k3, PS)",,58%,
"ACAATAAAATGTCACG (sugars k3 d10 k3, PS)",,29%,
"CTTTGAAGTGCTGTGT (sugars k3 d10 k3, PS)",,16%,
"TTATGTTAGCCAATTC (sugars kddddddddddkekek, PS)",2% and 6%,,
"TGGAACAGTAACTTGA (sugars k3 d10 k3, PS)",,12%,
"AGCAAGTGGAGGTCTT (sugars k3 d10 k3, PS)",,63%,

Sequence,"target mRNA inhibition (MM.1R, 1 µM)","target mRNA inhibition (SK-MEL-28, 4 µM)",further results
"AGGTAAGATCTCCATG (sugars k3 d10 k3, PS)",32%,,
"CTTTACACAGTTCTAA (sugars k3 d10 k3, PS)",,-13%,
"TGGCAGTCTACAGAAC (sugars k3 d10 k3, PS)",,-22%,
"ACTAAGGACAGCTGTG (sugars k3 d10 k3, PS)",,15%,
"ATGATATTAGAGACTG (sugars k3 d10 k3, PS)",,74%,
"ACGCCTTAATGTTCAG (sugars k3 d10 k3, PS)",,77%,
"CTAGAGGTGCCTTCTT (sugars k3 d10 k3, PS)",,26%,
"GCTGAATTGTCATGAA (sugars k3 d10 k3, PS)",,36%,
"ACACACAAGTGGCCTT (sugars k3 d10 k3, PS)",,44%,
"TTTATGCCCTCGCTCA (sugars k3 d10 k3, PS)",,24%,
"TTCAGCCACGAGGCAC (sugars k3 d10 k3, PS)",,5%,
"GGGAAAGAGCTTTGGT (sugars k3 d10 k3, PS)",,5%,
"GGTAAAGGAGTGCAGG (sugars k3 d10 k3, PS)",,46%,
"TACTGTTACCGATGCT (sugars kkdddddddddkdkdk, PS)",7% and 18%,,
"CCGGACCCCGGAGCAG (sugars k3 d10 k3, PS)",,-24%,
"AACTATAATTGGCACG (sugars k3 d10 k3, PS)",,73% and 59%,
"CCAATACATATCCATG (sugars k3 d10 k3, PS)",,60%,
"AGCAAAGCAAGTGTCT (sugars k3 d10 k3, PS)",,58%,
"TGCTTGAGGTTTTCCT (sugars kddddddddddkekek, PS)",36%,,
"CTCTTTAAAATATCGC (sugars k3 d10 k3, PS)",,56%,
"GAGATAAGAAGCACTG (sugars k3 d10 k3, PS)",,44%,
"GCAAGATGACTCCATG (sugars k3 d10 k3, PS)",,63%,
"CCACATACCTGAAACG (sugars k3 d10 k3, PS)",-9%,,
"CACGAGGCACCGCACT (sugars k3 d10 k3, PS)",,-13%,

Sequence,"target mRNA inhibition (MM.1R, 1 µM)","target mRNA inhibition (SK-MEL-28, 4 µM)",further results
"TTTATGTTAGCCAATT (sugars kkdddddddddkdkdk, PS)",11% and 34%,,
"GCAGTAAACGCAAGTC (sugars k3 d10 k3, PS)",,54%,
"GACAGAAGATCTCTAC (sugars k3 d10 k3, PS)",,17%,
"CACATTAAAGGGTAAG (sugars k3 d10 k3, PS)",,-1%,
"CACCCACACAAGTCTT (sugars k4 d8 k4, PS)",,14%,
"GACAGCATAGCATTAT (sugars k3 d10 k3, PS)",,72% and 77%,
"AGAACATTACGAGAGG (sugars k3 d10 k3, PS)",41% and 51%,,"target mRNA inhibition (MM.1R, 0.0625 µM): 2% and 12%; target mRNA inhibition (MM.1R, 0.25 µM): 16% and 20%; target mRNA inhibition (MM.1R, 4 µM): 65% and 66%"
"GTCACGCCCGCAAAAG (sugars k3 d10 k3, PS)",,39%,
"CTTCTTTATGCGAAGA (sugars k3 d10 k3, PS)",,-5%,
"TGGAGGTCTTTGGGAT (sugars k3 d10 k3, PS)",,58%,
"AAGGTCTGAGTTGTAC (sugars k3 d10 k3, PS)",20%,,
"GAAAGAGGCACCCTCC (sugars k3 d10 k3, PS)",,19%,
"CTTGCCAGTGGTGGCC (sugars k3 d10 k3, PS)",,16%,
"AGAGACGCGGTGAGAG (sugars k3 d10 k3, PS)",-20%,,
"TTGTTAACAATGTATC (sugars k3 d10 k3, PS)",,47%,
"CCATGGGAGATCCGGC (sugars k3 d10 k3, PS)",,54%,
"GTAGTATGAGAAACGG (sugars kkddddddddddkeke, PS)",28%,,
"CTGCTTGAGGTTTTCC (sugars kkkddddddddkekek, PS)",26%,,
"GCTTCAAGACAGGTCT (sugars k3 d10 k3, PS)",29%,,
"CCTCACTACAGAGCCC (sugars k3 d10 k3, PS)",,24%,
"TGTCACTATGCCTGAA (sugars k3 d10 k3, PS)",,27%,
"CCGTGGTGAGCAAACG (sugars k3 d10 k3, PS)",,32%,
"CTTGATAAAGGCTGAA (sugars kkddddddddddkeke, PS)",4%,,
"TCCTCCTCGCGGTTGT (sugars k3 d10 k3, PS)",,59%,

Sequence,"target mRNA inhibition (MM.1R, 1 µM)","target mRNA inhibition (SK-MEL-28, 4 µM)",further results
"AGCCCTTGCTGCAAAT (sugars k3 d10 k3, PS)",-11%,,
"GTGATGTCAGGTTTTC (sugars kkkdddddddddkeke, PS)",34%,,
"AGCAGTGATGTCAGGT (sugars k2 d9 e3 k2, PS)",69% and 56%,,
"GTTCCTTTTCAGAGTC (sugars k3 d10 k3, PS)",,72%,"target mRNA inhibition (SK-MEL-28, 0.185 µM): 16% and 4% and 3%"
"CTGCTTGAGGTTTTCC (sugars kkddddddddddkeke, PS)",44%,,
"CAACAGTTCAAGTATT (sugars k3 d10 k3, PS)",,35%,
"CTACAAAATGCCTCCA (sugars k3 d10 k3, PS)",,42%,
"TGGCTAGCAGAGGTTC (sugars k4 d8 k4, PS)",,9%,
"TAAGTGATAGGTATAC (sugars k3 d10 k3, PS)",,60%,
"ATAGCTGTTTATTTCC (sugars k4 d8 k4, PS)",,59%,"target mRNA inhibition (MM.1R, 0.074 µM): 7%; target mRNA inhibition (MM.1R, 0.222 µM): 6%; target mRNA inhibition (MM.1R, 0.666 µM): 11%; target mRNA inhibition (MM.1R, 2 µM): 32%; target mRNA inhibition (SK-MEL-28, 0.185 µM): -2% and -10% and -3%; target mRNA inhibition (SK-MEL-28, 15 µM): 81% and 79% and 91%"
"CCAGCTTCGGTCGAGG (sugars k3 d10 k3, PS)",-5%,,
"CCTTCAGATTTACACC (sugars k3 d10 k3, PS)",-9%,,
"AAAACTACTATTGTGG (sugars k3 d10 k3, PS)",,14%,
"GCTAAAGGAGTGCAGG (sugars k3 d10 k3, PS)",,7%,
"CGCTCAAAGACCAGCT (sugars k3 d10 k3, PS)",,56%,
"CAGTACAGTCCACTCC (sugars k3 d10 k3, PS)",5%,,
"GTATTTTTCCGTTCCT (sugars k3 d10 k3, PS)",84% and 74%,,"target mRNA inhibition (H929, 0.04 µM): 33% and 14%; target mRNA inhibition (KMS11, 0.2 µM): 82% and 96%; target mRNA inhibition (MM.1R, 0.0625 µM): 34%; target mRNA inhibition (MM.1R, 0.25 µM): 57%; target mRNA inhibition (MM.1R, 4 µM): 93%"
"CATCACTTGGTCAATT (sugars k3 d10 k3, PS)",,29%,
"GGATAATATACCCCAA (sugars k3 d10 k3, PS)",,64%,
"GCACATCAATGTTTTA (sugars kkdddddddddkdkdk, PS)",11% and 7%,,
"TATAACTTCTCCTGTG (sugars k3 d10 k3, PS)",7%,,
"GGCAATGGAGTCTCGC (sugars k3 d10 k3, PS)",,50%,
"AGTGATGTCAGGTTTT (sugars kkkddddddddkekek, PS)",37%,,
"TCAGTTTGTGAAGCAT (sugars kkddddddddddkeke, PS)",33%,,

# Source: the OligoGym collection
